Test [1] deals with Staphylococcus aureus. As to the kind of experiment: Disruption of plasma membrane integrity in Staphylococcus aureus 1H assessed as extracellular ATP release at 20 uM after 15 to 120 mins by BacTiter-Glo microbial assay relative to control. The test is classed as functional.
In test [2] the test system is Staphylococcus aureus. As to the kind of experiment: Antibacterial activity against methicillin-resistant Staphylococcus aureus USA-300 assessed as growth inhibition at 50 uM after 5 hrs by BacTiter-Glo microbial assay relative to control. The format is functional.
The subject of test [3] is Staphylococcus aureus. As to the kind of experiment: Antibacterial activity against methicillin-resistant Staphylococcus aureus MW2 assessed as growth inhibition at 50 uM after 5 hrs by BacTiter-Glo microbial assay relative to control. The test is classed as functional.
In test [4] the test system is Staphylococcus aureus. Put plainly: Antibacterial activity against methicillin-resistant Staphylococcus aureus USA-300 after 20 to 24 hrs by two-fold broth microdilution method. The test is classed as functional, organism-based. (In general: In broth dilution the organism is exposed to a series of concentrations in liquid medium.)
For test [5], the system named is Bacillus cereus. As to the kind of experiment: Antibacterial activity against Bacillus cereus NCTC 7464 after 20 to 24 hrs by two-fold broth microdilution method. The test is classed as functional, organism-based.
In test [6] the test system is Staphylococcus aureus. Put plainly: Antibacterial activity against methicillin-resistant Staphylococcus aureus MW2 after 20 to 24 hrs by two-fold broth microdilution method. The format is functional, organism-based.
The test system of test [7] is Enterococcus faecalis. Put plainly: Antibacterial activity against Enterococcus faecalis NCTC 775 after 20 to 24 hrs by two-fold broth microdilution method. The format is functional, organism-based.
The test system of test [8] is Staphylococcus aureus. As to the kind of experiment: Antibacterial activity against Staphylococcus aureus 1H after 20 to 24 hrs by two-fold broth microdilution method. The test is classed as functional, organism-based.
Test [9] has as its system Staphylococcus aureus. Put plainly: Antibacterial activity against Staphylococcus aureus NCTC 6571 after 20 to 24 hrs by two-fold broth microdilution method. The format is functional, organism-based.
Test [10] has as its system Salmonella typhimurium. Put plainly: Antibacterial activity against Salmonella typhimurium assessed as growth inhibition at 50 uM after 5 hrs by BacTiter-Glo microbial assay relative to control. The format is functional. As to conditions: Salmonella enterica subsp. enterica serovar Typhimurium.
Test [11] concerns Pseudomonas aeruginosa. As to the kind of experiment: Antibacterial activity against Pseudomonas aeruginosa PAO1 assessed as growth inhibition at 50 uM after 5 hrs by BacTiter-Glo microbial assay relative to control. The test is classed as functional.
Test [12] relates to Klebsiella pneumoniae. Put plainly: Antibacterial activity against Klebsiella pneumoniae NCIB 8805 assessed as growth inhibition at 50 uM after 5 hrs by BacTiter-Glo microbial assay relative to control. The test is classed as functional.
For test [13], the system named is Escherichia coli. Put plainly: Antibacterial activity against Escherichia coli assessed as growth inhibition at 50 uM after 5 hrs by BacTiter-Glo microbial assay relative to control. The format is functional.
In test [14] the test system is Bacillus cereus. Put plainly: Antibacterial activity against Bacillus cereus NCTC 7464 assessed as growth inhibition at 50 uM after 5 hrs by BacTiter-Glo microbial assay relative to control. The format is functional.
Test [15] has as its system Enterococcus faecalis. As to the kind of experiment: Antibacterial activity against Enterococcus faecalis NCTC 775 assessed as growth inhibition at 50 uM after 5 hrs by BacTiter-Glo microbial assay relative to control. The test is classed as functional.
Test [16] concerns Staphylococcus aureus. Put plainly: Antibacterial activity against penicillin-resistant Staphylococcus aureus 1H assessed as growth inhibition at 50 uM after 5 hrs by BacTiter-Glo microbial assay relative to control. The format is functional.
For test [17], the system named is Staphylococcus aureus. Put plainly: Antibacterial activity against Staphylococcus aureus NCTC 6571 assessed as growth inhibition at 50 uM after 5 hrs by BacTiter-Glo microbial assay relative to control. The format is functional.

Consider `COC1=C(Br)C[C@]2(OC=C1Br)ON=C(C(=O)NCCCOc1c(Br)cc(CC[N+](C)(C)C)cc1Br)[C@@H]2O.O=C([O-])C(F)(F)F`, for which the “fold change (FC)” value in [1] amounted to 2.

By MIC is commonly meant the lowest concentration that inhibits growth of the organism. A low value points to inhibition by little substance. As to GENTAMICIN, the growth inhibition (GI) is 90% in test [2]; 93% in test [3]; 82% in test [10]; 86% in test [11]; 83% in test [12]; 87% in test [13]. Moreover, the growth inhibition (GI) in test [14] amounted to 82%; in [15], 77%; in [16], 89%; in test [17], 95%. Also, the MIC in [4] turned out to be 3.1 µM; in test [5], 1.6 µM; in test [6], 1.6 µM; in test [7], 25 µM; in test [8] it was 1.6 µM; in [9] it was 0.8 µM.

The values are drawn from ChEMBL document CHEMBL2417452, “Psammaplysin F: a unique inhibitor of bacterial chromosomal partitioning” (Bioorg Med Chem Lett, 2013).
